From ChEMBL document CHEMBL1157938, “Cytotoxicity and inhibition of DNA topoisomerase I of polyhydroxylated triterpenoids and triterpenoid glycosides” (Bioorg Med Chem Lett, 2010)
Calls of active or inactive are those of the source. The rule behind the calls is not given here.

How the values were obtained:
[1] = test system: PC-3; assay: Cytotoxicity against human PC3 cells at 25 uM after 48 hrs by WST8 assay; format: functional, cell-based
[2] = test system: HL-60; assay: Cytotoxicity against human HL60 cells at 25 uM after 48 hrs by WST8 assay; format: functional, cell-based
[3] = test system: PANC-1; assay: Cytotoxicity against human PANC1 cells at 25 uM after 48 hrs by WST8 assay; format: functional, cell-based
[4] = test system: MRC5; assay: Cytotoxicity against human MRC5 cells at 25 uM after 48 hrs by WST8 assay; format: cell-based; conditions: mrc5, 48 h
[5] = test system: A549; assay: Cytotoxicity against human A549 cells at 25 uM after 48 hrs by WST8 assay; format: functional, cell-based
[6] = biological target: T1, DNA topoisomerase 1 (Homo sapiens, UniProt P11387); assay: Inhibition of human DNA topoisomerase 1-mediated relaxation of supercoiled DNA by gel electrophoresis
T1 sequence (P11387 whole entry): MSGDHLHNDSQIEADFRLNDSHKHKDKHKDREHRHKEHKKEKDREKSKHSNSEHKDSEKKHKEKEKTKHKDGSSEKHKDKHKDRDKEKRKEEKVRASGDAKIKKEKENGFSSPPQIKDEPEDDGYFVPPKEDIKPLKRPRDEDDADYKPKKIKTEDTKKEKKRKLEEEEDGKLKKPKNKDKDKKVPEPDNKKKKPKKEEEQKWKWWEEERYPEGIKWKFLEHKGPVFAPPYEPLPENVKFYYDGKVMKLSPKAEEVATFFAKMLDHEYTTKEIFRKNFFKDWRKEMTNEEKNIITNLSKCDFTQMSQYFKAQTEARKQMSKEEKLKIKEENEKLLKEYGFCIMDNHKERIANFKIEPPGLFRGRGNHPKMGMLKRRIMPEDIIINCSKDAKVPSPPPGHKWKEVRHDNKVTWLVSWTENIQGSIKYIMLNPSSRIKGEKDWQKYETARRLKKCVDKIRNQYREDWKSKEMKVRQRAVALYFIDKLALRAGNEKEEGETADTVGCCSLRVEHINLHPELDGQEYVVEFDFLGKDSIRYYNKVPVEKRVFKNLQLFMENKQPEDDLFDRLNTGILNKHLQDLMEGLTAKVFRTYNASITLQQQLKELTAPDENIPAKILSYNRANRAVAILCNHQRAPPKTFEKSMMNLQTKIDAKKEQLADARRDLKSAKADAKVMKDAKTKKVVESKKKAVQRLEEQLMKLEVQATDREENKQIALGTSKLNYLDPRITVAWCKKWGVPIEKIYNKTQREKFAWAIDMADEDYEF

[7] = biological target: DNA topoisomerase 2-alpha (Homo sapiens, UniProt P11388); assay: Inhibition of human DNA topoisomerase 2-mediated relaxation of supercoiled DNA by gel electrophoresis
Chain of DNA topoisomerase 2-alpha (P11388 whole entry): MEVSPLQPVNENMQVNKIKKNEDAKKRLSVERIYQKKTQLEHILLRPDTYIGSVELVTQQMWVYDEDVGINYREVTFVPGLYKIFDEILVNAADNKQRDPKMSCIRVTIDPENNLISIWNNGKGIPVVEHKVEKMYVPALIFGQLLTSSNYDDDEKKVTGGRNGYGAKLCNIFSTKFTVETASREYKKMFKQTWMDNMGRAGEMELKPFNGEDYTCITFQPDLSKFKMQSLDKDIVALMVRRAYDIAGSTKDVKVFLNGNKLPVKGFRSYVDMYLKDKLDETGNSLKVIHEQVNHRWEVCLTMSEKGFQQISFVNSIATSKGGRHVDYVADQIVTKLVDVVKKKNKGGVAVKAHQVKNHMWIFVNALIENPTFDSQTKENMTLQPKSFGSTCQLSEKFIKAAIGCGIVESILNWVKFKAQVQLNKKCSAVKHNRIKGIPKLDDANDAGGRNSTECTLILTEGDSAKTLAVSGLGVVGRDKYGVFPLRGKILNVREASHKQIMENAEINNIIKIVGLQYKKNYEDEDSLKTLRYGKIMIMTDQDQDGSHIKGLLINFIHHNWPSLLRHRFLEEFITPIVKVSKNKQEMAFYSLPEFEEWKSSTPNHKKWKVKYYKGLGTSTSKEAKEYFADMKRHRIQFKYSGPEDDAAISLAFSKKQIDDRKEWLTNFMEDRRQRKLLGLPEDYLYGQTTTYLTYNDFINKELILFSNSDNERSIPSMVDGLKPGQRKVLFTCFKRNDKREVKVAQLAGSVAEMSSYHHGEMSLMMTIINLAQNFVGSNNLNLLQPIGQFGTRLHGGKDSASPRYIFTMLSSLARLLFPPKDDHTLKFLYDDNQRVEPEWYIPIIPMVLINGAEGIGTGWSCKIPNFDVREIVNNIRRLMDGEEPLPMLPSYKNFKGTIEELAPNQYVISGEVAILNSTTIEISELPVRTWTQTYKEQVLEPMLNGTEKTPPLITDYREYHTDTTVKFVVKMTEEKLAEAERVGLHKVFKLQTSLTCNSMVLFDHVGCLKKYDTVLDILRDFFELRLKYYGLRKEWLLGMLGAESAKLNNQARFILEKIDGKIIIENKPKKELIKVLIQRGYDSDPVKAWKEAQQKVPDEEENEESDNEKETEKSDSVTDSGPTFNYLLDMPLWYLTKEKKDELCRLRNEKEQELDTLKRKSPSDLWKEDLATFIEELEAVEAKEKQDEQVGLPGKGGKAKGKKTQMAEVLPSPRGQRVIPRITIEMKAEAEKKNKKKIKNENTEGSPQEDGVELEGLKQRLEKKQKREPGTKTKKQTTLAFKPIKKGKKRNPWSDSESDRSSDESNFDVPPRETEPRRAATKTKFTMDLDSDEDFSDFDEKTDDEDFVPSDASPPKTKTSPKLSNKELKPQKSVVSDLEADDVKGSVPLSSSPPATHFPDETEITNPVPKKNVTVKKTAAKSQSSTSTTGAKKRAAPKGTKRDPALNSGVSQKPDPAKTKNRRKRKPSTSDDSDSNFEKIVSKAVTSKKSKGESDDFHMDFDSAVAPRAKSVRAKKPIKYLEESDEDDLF

| SMILES | growth inhibition (GI) [1] | growth inhibition (GI) [2] | growth inhibition (GI) [3] | growth inhibition (GI) [4] | growth inhibition (GI) [5] | IC50 [6] [µM] | IC50 [7] [µM] |
| --- | --- | --- | --- | --- | --- | --- | --- |
| CC1(C)C[C@H]2C3=CC[C@@H]4[C@@]5(C)CC[C@H](O[C@@H]6O[C@H](C(=O)O)[C@@H](O)[C@H](O[C@@H]7O[C@@H](CO)[C@H](O)[C@H]7O)[C@H]6O[C@@H]6O[C@H](CO)[C@H](O)[C@H](O)[C@H]6O)C(C)(C)[C@@H]5CC[C@@]4(C)[C@]3(C)C[C@@H](O)[C@@]2(CO)[C@@H](O)[C@@H]1O [AESCULIOSIDE IC] | inactive | inactive | inactive | Not Active | inactive |  |  |
| CC1(C)C[C@H]2C3=CC[C@@H]4[C@@]5(C)CC[C@H](O[C@@H]6O[C@H](C(=O)O)[C@@H](O)[C@H](O[C@@H]7O[C@@H](CO)[C@H](O)[C@H]7O)[C@H]6O[C@@H]6O[C@H](CO)[C@@H](O)[C@H](O)[C@H]6O)[C@](C)(CO)[C@@H]5CC[C@@]4(C)[C@]3(C)C[C@@H](O)[C@@]2(CO)[C@@H](O)[C@@H]1O [AESCULIOSIDE ID] | inactive | inactive | inactive | Not Active | inactive |  |  |
| CC1(C)C[C@H]2C3=CC[C@@H]4[C@@]5(C)CC[C@H](O[C@@H]6O[C@H](C(=O)O)[C@@H](O)[C@H](O[C@@H]7O[C@@H](CO)[C@H](O)[C@H]7O)[C@H]6O)[C@](C)(CO)[C@@H]5CC[C@@]4(C)[C@]3(C)C[C@@H](O)[C@@]2(CO)[C@@H](O)[C@@H]1O [AESCULIOSIDE IE] | inactive | inactive | inactive | Not Active | inactive |  |  |
| C/C=C(\C)C(=O)O[C@H]1[C@H](OC(C)=O)[C@]2(CO)[C@H](O)[C@H](O)[C@]3(C)C(=CC[C@@H]4[C@@]5(C)CC[C@H](O[C@@H]6O[C@H](C(=O)O)[C@@H](O)[C@H](O[C@@H]7O[C@@H](CO)[C@H](O)[C@H]7O)[C@H]6O[C@@H]6O[C@H](CO)[C@H](O)[C@H](O)[C@H]6O)C(C)(C)[C@@H]5CC[C@]43C)[C@@H]2CC1(C)C [AESCULIOSIDE IIF] | inactive | inactive | inactive | Not Active | inactive | > 250 | > 250 |
| C/C=C(/C)C(=O)O[C@H]1[C@H](OC(C)=O)[C@]2(CO)[C@H](O)[C@H](O)[C@]3(C)C(=CC[C@@H]4[C@@]5(C)CC[C@H](O[C@@H]6O[C@H](C(=O)O)[C@@H](O)[C@H](O[C@@H]7O[C@@H](CO)[C@H](O)[C@H]7O)[C@H]6O[C@@H]6O[C@H](CO)[C@H](O)[C@H](O)[C@H]6O)C(C)(C)[C@@H]5CC[C@]43C)[C@@H]2CC1(C)C [AESCULIOSIDE IIG] | inactive | inactive | inactive | Not Active | inactive | > 250 | > 250 |
| C/C=C(\C)C(=O)O[C@H]1[C@H](OC(C)=O)[C@]2(CO)[C@H](O)C[C@]3(C)C(=CC[C@@H]4[C@@]5(C)CC[C@H](O[C@@H]6O[C@H](C(=O)O)[C@@H](O)[C@H](O[C@@H]7O[C@@H](CO)[C@H](O)[C@H]7O)[C@H]6O[C@@H]6O[C@H](CO)[C@@H](O)[C@H](O)[C@H]6O)[C@](C)(CO)[C@@H]5CC[C@]43C)[C@@H]2CC1(C)C [AESCULIOSIDE IIH] | inactive | inactive | inactive | Not Active | inactive |  |  |
| CC1(C)C[C@H]2C3=CC[C@@H]4[C@@]5(C)CC[C@H](O)C(C)(C)[C@@H]5CC[C@@]4(C)[C@]3(C)C[C@@H](O)[C@@]2(CO)[C@@H](O)[C@@H]1O [BARRINGTOGENOL C] | inactive | inactive | inactive | Not Active | inactive |  |  |
| CC1(C)CC[C@]2(C(=O)O[C@@H]3O[C@H](CO)[C@@H](O)[C@H](O)[C@H]3O)CC[C@]3(C)C(=CC[C@@H]4[C@@]5(C)CC[C@H](O[C@@H]6O[C@H](C(=O)O)[C@@H](O)[C@H](O)[C@H]6O)C(C)(C)[C@@H]5CC[C@]43C)[C@@H]2C1 [CHIKUSETSUSAPONIN IVA] | inactive | inactive | inactive | Not Active | inactive |  |  |
| C[C@@H]1[C@@H](O)[C@H](O)[C@@H](O[C@H]2CC(C)(C)C[C@H]3C4=CC[C@@H]5[C@@]6(C)CC[C@H](O[C@@H]7O[C@H](CO)[C@@H](O)[C@H](O)[C@H]7O[C@@H]7O[C@H](CO)[C@@H](O)[C@H](O)[C@H]7O[C@@H]7O[C@H](CO)[C@@H](O)[C@H](O)[C@H]7O)C(C)(C)[C@@H]6CC[C@@]5(C)[C@]4(C)C[C@@H](O)[C@@]23CO)O[C@H]1CO [ERYNGIOSIDE A] | inactive | inactive | inactive | Not Active | inactive |  |  |
| C[C@@H]1[C@@H](O)[C@H](O)[C@@H](O[C@H]2CC(C)(C)C[C@H]3C4=CC[C@@H]5[C@@]6(C)CC[C@H](O[C@@H]7O[C@H](CO)[C@@H](O)[C@H](O)[C@H]7O[C@@H]7O[C@H](CO)[C@@H](O)[C@H](O)[C@H]7O[C@@H]7O[C@H](CO)[C@H](O)[C@H](O)[C@H]7O)C(C)(C)[C@@H]6CC[C@@]5(C)[C@]4(C)C[C@@H](O)[C@@]23CO)O[C@H]1CO [ERYNGIOSIDE B] | inactive | inactive | inactive | Not Active | inactive |  |  |
| C[C@@H]1[C@@H](O)[C@H](O)[C@@H](O[C@H]2CC(C)(C)C[C@H]3C4=CC[C@@H]5[C@@]6(C)CC[C@H](O[C@@H]7O[C@H](CO)[C@@H](O)[C@H](O)[C@H]7O[C@@H]7O[C@H](CO)[C@@H](O)[C@H](O)[C@H]7O[C@@H]7O[C@H](CO)[C@@H](O)[C@H](O)[C@H]7O)C(C)(C)[C@@H]6CC[C@@]5(C)[C@]4(C)CC(=O)[C@@]23CO)O[C@H]1CO [ERYNGIOSIDE C] | inactive | inactive | inactive | Not Active | inactive |  |  |
| C/C=C(/C)C(=O)O[C@H]1[C@H](O)C(C)(C)C[C@H]2C3=CC[C@@H]4[C@@]5(C)CC[C@H](O[C@@H]6O[C@H](C(=O)O)[C@@H](O)[C@H](O[C@@H]7OC[C@@H](O)[C@H](O)[C@H]7O)[C@H]6O[C@@H]6O[C@H](CO)[C@@H](O)[C@H](O)[C@H]6O)C(C)(C)[C@@H]5CC[C@@]4(C)[C@]3(C)[C@@H](O)[C@@H](O)[C@]21CO [ERYNGIOSIDE E] | inactive | inactive | inactive | Not Active | inactive | > 250 | > 250 |
